From patent US5430047A, “Neurotensin antagonists” (Warner-Lambert Company, priority 1994, dated 1995)

target: T1, neurotensin receptor (Mus musculus, UniProt O88319); experiment: Inhibition of [3H] neurotensin binding in a receptor assay; details: [3H] neurotensin receptor binding
T1 construct: from tissue
Protocol: (§1) Thus, the compounds of Formula I were tested for their ability to inhibit [^3 H] neurotensin binding in a receptor assay described by Mazella J., et al., Journal of Biological Chemistry, 263:144-149 (1988) and Kitabgi P., et al., European Journal of Pharmacology, 140:285-293 (1987). Compounds were tested as neurotensin antagonists using the functional assay described by Bunzou J. C., et al., Biochem. J., 264:871-878 (1989) and Turner J., et al., J. Pharm. Exp. Ther., 253:1049-1056 (1990). Thus, compounds were tested for their ability to inhibit neurotensin-induced calcium mobilization in HT29 cells.
(§2) The above test methods are incorporated herein by reference. The data in the table show the neurotensin receptor binding activity and calcium mobilization activity, of representative compounds of Formula I.

T1 sequence (O88319 whole entry): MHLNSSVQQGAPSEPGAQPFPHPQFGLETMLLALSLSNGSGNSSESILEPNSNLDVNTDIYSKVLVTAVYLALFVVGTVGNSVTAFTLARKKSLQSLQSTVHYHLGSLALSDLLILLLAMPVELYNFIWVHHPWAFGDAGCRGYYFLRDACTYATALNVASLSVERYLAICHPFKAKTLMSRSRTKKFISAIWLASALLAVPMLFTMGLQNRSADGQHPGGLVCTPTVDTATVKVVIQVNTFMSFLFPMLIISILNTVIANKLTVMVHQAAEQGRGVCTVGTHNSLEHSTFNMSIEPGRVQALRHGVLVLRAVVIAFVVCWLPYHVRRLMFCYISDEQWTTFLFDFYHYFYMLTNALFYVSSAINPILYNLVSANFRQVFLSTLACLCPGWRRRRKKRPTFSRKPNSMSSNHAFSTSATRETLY

Row | Compound | Ki [µM]
1 | Cc1ccc(C(=O)CC(CC(=O)c2ccc(F)cc2)c2cccc(C(=O)O)c2)cc1 (stereo not drawn) [Example 15, 3-[1-[2-(4-Fluorophenyl)-2-oxoethyl]-3-oxo-3-p-tolylpropyl]-benzoic acid] | 0.448
2 | O=C(O)c1cccc(C(CCc2ccc(F)cc2)CC(=O)c2ccccc2)c1 (stereo not drawn) [Example 21, 3-[1-[2-(4-Fluorophenyl)ethyl]-3-oxo-3-phenylpropyl]-benzoic acid] | 29.5
3 | O=C(CC(CC(=O)c1ccc(Cl)cc1)c1cccc(-c2nnn[nH]2)c1)c1ccc(Cl)cc1 [Example 18, 1,5-Bis-(4-chlorophenyl)-3-[3-(1H-tetrazol-5-yl)phenyl]-pentane-1,5-dione] | 5.9
4 | O=C(O)c1cccc(C(CCc2ccccc2)CC(=O)c2ccc(Cl)cc2)c1 (stereo not drawn) [Example 23, 3-[3-(4-Chlorophenyl)-3-oxo-1-[2-phenylethyl]propyl]-benzoic acid] | 10.4
5 | O=C(O)c1cccc(C(CCc2ccc(F)cc2)CC(=O)c2ccc(F)cc2)c1 (stereo not drawn) [Example 22, 3-[3-(4-Fluorophenyl)-1-[2-(4-fluorophenyl)ethyl]-3-oxopropyl]-benzoic acid] | 3.24

The next lines start with the values.

Row | Ki [µM] | Compound
6 | 17.7 | O=C(O)c1cccc(C(CCc2ccc(Cl)cc2)CC(=O)c2ccccc2)c1 (stereo not drawn) [Example 19, 3-[1-[2-(4-Chlorophenyl)ethyl]-3-oxo-3-phenylpropyl]-benzoic acid]
7 | 6.74 | O=C(O)c1cccc(C(CCc2ccc(Cl)cc2)CC(=O)c2ccc(Cl)cc2)c1 (stereo not drawn) [Example 20, 3-[3-(4-Chlorophenyl)-1-[2-(4-chlorophenyl)ethyl]-3-oxopropyl]-benzoic acid]
8 | 6.32 | O=C(CC(CC(=O)c1ccc(F)cc1)c1cccc(-c2nnn[nH]2)c1)c1ccc(F)cc1 [Example 17, 1,5-Bis-(4-fluorophenyl)-3-[3-(1H-tetrazol-5-yl)-phenyl]-pentane-1,5-dione]

target: T2, neurotensin receptor (Homo sapiens, UniProt P30989); experiment: Inhibition of neurotensin-induced calcium mobilization in HT29 cells; type: cell-based; details: not given
T2 construct: endogenous in cells; host or cells: HT29 cells
T2 sequence (P30989 whole entry): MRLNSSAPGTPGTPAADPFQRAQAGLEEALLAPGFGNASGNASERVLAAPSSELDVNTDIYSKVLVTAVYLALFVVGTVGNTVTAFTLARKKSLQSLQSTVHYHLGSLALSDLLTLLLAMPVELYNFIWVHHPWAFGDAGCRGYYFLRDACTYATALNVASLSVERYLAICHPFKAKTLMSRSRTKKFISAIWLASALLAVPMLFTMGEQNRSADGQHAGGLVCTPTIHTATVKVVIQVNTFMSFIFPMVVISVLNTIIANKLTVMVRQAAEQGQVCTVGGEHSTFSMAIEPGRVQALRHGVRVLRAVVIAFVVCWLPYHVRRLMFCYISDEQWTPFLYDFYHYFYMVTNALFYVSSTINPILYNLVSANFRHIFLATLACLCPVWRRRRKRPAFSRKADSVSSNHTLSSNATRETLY
Protocol: as §1, §2

Row | IC50 [µM] | Compound
9 | 2.2 | COc1cccc(OC)c1C(=O)CC(CC(=O)c1ccc(Cl)cc1)c1cccc(C(=O)O)c1 (stereo not drawn) [Example 7, 3-[1-[2-(4-Chlorophenyl)-2-oxoethyl]-3-(2,6-dimethoxyphenyl)-3-oxopropyl]-benzoic acid]
